From patent US5077204A, “Yeast endopeptidase for basic amino-acid site cleavage, preparation and use” (Chiron Corporation, priority 1988, dated 1991)
Like-named read-outs stand apart in the source and are kept apart here. Peptide text beside a SMILES is read from it. * marks the point of attachment. AMC = Cc1cc(=O)oc2cc(N*)ccc12; Boc = CC(C)(C)OC(=O)*

Tests used:
Type in all cases: biochemical, S. cerevisiae
[1] = target: T1, KEX2 endopeptidase (kex2::pJ2B membranes) (Saccharomyces cerevisiae, UniProt P13134); assay: Endopeptidase activity in membranes from kex2 cells containing pJ2B in integrated form; conditions: for Relative Ratio: kex2::pJ2B relative to kex2[YEp24] = [1.0]
T1 construct: not only includes the KEX2 gene, but also the necessary transcriptional and translational regulatory signals for expression in yeast; expressed in transfected cells; host or cells: S. cerevisiae XBH16-15A (MATalpha kex2-1) containing pJ2B in integrated form; crude membranes
Method: (§1) Permeabilization of whole yeast cells with the non-ionic detergent Brij 58, preparation of crude membrane fractions, and measurement of protein concentration were conducted by the methods described previously (Julius et al., 1983, supra), incorporated herein by reference. To measure peptidase activity, samples of permeabilized cells or membrane material were added to a reaction mixture containing 0.1-0.5 mM fluorogenic peptide substrate (added from a 20 mM stock dissolved in DMSO) and 200 mM HEPES-Tris (pH 7.0), in a final volume of 0.4 ml. Following incubation for 30 min at 37° C., whole cells were removed by centrifugation in a microfuge (Eppendorf) and membrane material was removed by Ba(OH)2 -ZnSO4 precipitation. The amount of fluorescence formed in the supernatant solution was determined in a fluorescence spectrophotometer (Perkin-Elmer, Model MPF-44B), set either at an excitation wavelength of 335 nm and an emission wavelength of 410 nm (for measurement of β-naphthylamine) or at an excitation wavelength of 380 nm and an emission wavelength of 460 nm (for measurement of 7-amino-4-methyl-coumarin, AMC). To determine the number of moles of substrate hydrolyzed, the fluorescence yield of samples was compared to a standard curve prepared with known concentrations of authentic AMC dissolved in the same buffer.
(§2) Cells of strain XBH1615A that had been transformed with the plasmids
(§3) indicated, or that contained pJ2B in integrated form, were grown in SCUra
(§4) and membranes were prepared as described in the Experimental.
(§5) Endopeptidase activity was assayed as described in the Experimental. All
(§6) substrates tested were present at 0.1 mM.
(§7) Endopeptidase activity was assayed using Boc--GlnArgArg--MCA as the
(§8) substrate, as outlined in the Experimental. All inhibitors were added fro
(§9) a 0.1 M stock dissolved in dimethyl sulfoxide. All values given were
(§10) corrected for the slight effects of addition of this solvent alone.

[2] = test system: background activity in membranes of kex2[YEp24] cells; assay: Endopeptidase activity in membranes from kex2 cells transformed with the vector YEp24 alone (background activity); conditions: for Susceptibility of the background activity to inhibition: kex2 cells transformed with YEp24 alone
Method: as §1, §2, §3, §4, §5, §6, §7, §8, §9, §10

[3] = target: T2, KEX2 endopeptidase (kex2[YEp24-pJ2B] membranes) (Saccharomyces cerevisiae, UniProt P13134); assay: Endopeptidase activity in membranes from kex2 cells carrying multicopy plasmid pJ2B (over-produced specific endopeptidase); conditions: for Relative Ratio: kex2[YEp24-pJ2B] relative to kex2[YEp24] = [1.0]; for Rate of hydrolysis, membranes from kex2 cells carrying pJ2B versus membranes from kex2 cells carrying YEp24 / Rate of hydrolysis (in words): membrane fractions; for Rate of hydrolysis, membranes from kex2 cells carrying pJ2B versus membranes from kex2 cells carrying YEp24: depending on the experiment; for Rate of hydrolysis (in words): endopeptidase substrates containing single arginine residues
T2 construct: not only includes the KEX2 gene, but also the necessary transcriptional and translational regulatory signals for expression in yeast; expressed in transfected cells; host or cells: S. cerevisiae XBH16-15A (MATalpha kex2-1) carrying YEp24-pJ2B
T2 sequence (P13134 114-814): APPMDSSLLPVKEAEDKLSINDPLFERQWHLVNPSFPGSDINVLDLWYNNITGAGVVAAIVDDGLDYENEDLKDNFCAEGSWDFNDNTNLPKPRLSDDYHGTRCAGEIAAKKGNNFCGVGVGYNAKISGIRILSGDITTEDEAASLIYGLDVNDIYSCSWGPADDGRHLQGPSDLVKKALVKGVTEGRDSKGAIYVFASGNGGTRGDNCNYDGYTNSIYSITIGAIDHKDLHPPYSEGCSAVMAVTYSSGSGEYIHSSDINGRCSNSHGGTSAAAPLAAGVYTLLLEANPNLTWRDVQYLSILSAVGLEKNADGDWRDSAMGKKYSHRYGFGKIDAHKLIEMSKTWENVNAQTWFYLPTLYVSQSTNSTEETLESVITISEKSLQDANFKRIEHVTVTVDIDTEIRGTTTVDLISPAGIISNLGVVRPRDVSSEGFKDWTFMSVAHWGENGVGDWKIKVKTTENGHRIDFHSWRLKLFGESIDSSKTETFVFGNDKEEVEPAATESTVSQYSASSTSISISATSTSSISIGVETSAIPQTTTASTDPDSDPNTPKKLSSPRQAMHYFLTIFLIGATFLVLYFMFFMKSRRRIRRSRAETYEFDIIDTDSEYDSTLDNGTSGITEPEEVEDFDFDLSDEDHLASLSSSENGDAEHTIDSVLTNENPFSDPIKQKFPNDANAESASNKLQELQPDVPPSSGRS
Method: as §1, §2, §3, §4, §5, §6, §7, §8
a 0.1 M stock dissolved in dimethyl sulfoxide.

[4] = strain kex2::pJ2B, substrate 0.1 mM, membranes
[5] = strain kex2[YEp24], substrate 0.1 mM, membranes
[6] = strain kex2[YEp24-pJ2B], substrate 0.1 mM, membranes
[7] = kex2 cells transformed with plasmid pJ2B, comparisons are to the background activity
[8] = kex2::pJ2B, inhibitor 1 mM, substrate Boc-GlnArgArg-MCA
[9] = kex2::pJ2B, inhibitor 5 mM, substrate Boc-GlnArgArg-MCA
[10] = kex2[YEp24], inhibitor 1 mM, substrate Boc-GlnArgArg-MCA
[11] = kex2[YEp24], inhibitor 5 mM, substrate Boc-GlnArgArg-MCA
[12] = kex2[YEp24-pJ2B], inhibitor 1 mM, substrate Boc-GlnArgArg-MCA
[13] = kex2[YEp24-pJ2B], inhibitor 5 mM, substrate Boc-GlnArgArg-MCA

SMILES: Cc1cc(=O)oc2cc(NC(=O)[C@@H](N)CCCNC(=N)N)ccc12 [Arg--MCA, Arg-MCA]
- Relative Ratio ([1]; substrate 0.1 mM): 1.2
- Specific Activity [1, 4]: 8.0 pmoles AMC formed/μg protein 10
- Specific Activity [2, 5]: 6.7 pmoles AMC formed/μg protein 10
- Relative Ratio ([3]; substrate 0.1 mM): 2.1
- Rate of hydrolysis, membranes from kex2 cells carrying pJ2B versus membranes from kex2 cells carrying YEp24 [3]: no significant increase
- Specific Activity [3, 6]: 14.0 pmoles AMC formed/μg protein 10

SMILES: CC[C@H](C)[C@H](NC(=O)OC(C)(C)C)C(=O)N[C@@H](CCC(=O)O)C(=O)NCC(=O)N[C@@H](CCCNC(=N)N)C(=O)Nc1ccc2c(C)cc(=O)oc2c1 [Boc--IleGluGlyArg--MCA, Boc-IleGluGlyArg-MCA] (Boc-IEGR-{AMC})
- Relative Ratio ([1]; substrate 0.1 mM): 3.0
- Specific Activity [1, 4]: 0.9 pmoles AMC formed/μg protein 10
- Specific Activity [2, 5]: 0.3 pmoles AMC formed/μg protein 10
- Relative Ratio ([3]; substrate 0.1 mM): 19.3
- Rate of hydrolysis (in words) [3]: negligible rates
- Specific Activity [3, 6]: 5.8 pmoles AMC formed/μg protein 10

SMILES: NC=O [formamide]
- Susceptibility of the specific KEX2 endopeptidase to inhibition or inactivation [3, 7]: much less sensitive to inactivation

SMILES: CO [methanol]
- Susceptibility of the specific KEX2 endopeptidase to inhibition or inactivation [3]: much less sensitive to inactivation

SMILES: Cc1ccc(S(=O)(=O)NC(Cc2ccccc2)C(=O)CCl)cc1 (centres unmarked) [TPCK, tosyl-phenylalanine-chloromethylketone]
- inhibition at 1000 µM [1]: 18%
- inhibition at 5000 µM [1]: 13%
- Specific Activity [1, 8]: 14.3 pmoles/μg/10 min
- Specific Activity [1, 9]: 15.2 pmoles/μg/10 min
- Inhibition [2, 10]: 57%
- Specific Activity [2, 10]: 2.2 pmoles/μg/10 min
- Inhibition [2, 11]: 73%
- Specific Activity [2, 11]: 1.4 pmoles/μg/10 min
- Susceptibility of the background activity to inhibition [2]: sensitive to inhibition
- Specific Activity [3, 12]: 105.9 pmoles/μg/10 min
- inhibition at 1000 µM [3, 12]: 2%
- Specific Activity [3, 13]: 109.2 pmoles/μg/10 min
- inhibition at 5000 µM [3, 13]: 0%
- Susceptibility of the specific KEX2 endopeptidase to inhibition or inactivation [3, 7]: completely resistant

SMILES: Cc1cc(=O)oc2cc(NC(=O)[C@@H](N)CC(C)C)ccc12 [Leu--MCA, Leu-MCA]
- Relative Ratio ([1]; substrate 0.1 mM): 1.1
- Specific Activity [1, 4]: 37.9 pmoles AMC formed/μg protein 10
- Specific Activity [2, 5]: 33.7 pmoles AMC formed/μg protein 10
- Relative Ratio ([3]; substrate 0.1 mM): 2.1
- Rate of hydrolysis, membranes from kex2 cells carrying pJ2B versus membranes from kex2 cells carrying YEp24 [3]: no significant increase
- Specific Activity [3, 6]: 69.8 pmoles AMC formed/μg protein 10

SMILES: O=S(=O)(F)Cc1ccccc1 [PMSF, phenylmethylsulfonyl fluoride]
- Inhibition [1, 8]: 17%
- Specific Activity [1, 8]: 14.4 pmoles/μg/10 min
- Inhibition [1, 9]: 16%
- Specific Activity [1, 9]: 14.7 pmoles/μg/10 min
- Inhibition [2, 10]: 45%
- Specific Activity [2, 10]: 2.8 pmoles/μg/10 min
- Inhibition [2, 11]: 71%
- Specific Activity [2, 11]: 1.5 pmoles/μg/10 min
- Susceptibility of the background activity to inhibition [2]: sensitive to inhibition
- Inhibition [3, 12]: 0%
- Specific Activity [3, 12]: 116.7 pmoles/μg/10 min
- Inhibition [3, 13]: 0%
- Specific Activity [3, 13]: 110.2 pmoles/μg/10 min
- Susceptibility of the specific KEX2 endopeptidase to inhibition or inactivation [3, 7]: completely resistant

SMILES: NC(=O)CI [iodoacetamide]
- Susceptibility of the specific KEX2 endopeptidase to inhibition or inactivation [3, 7]: more susceptible to inhibition

SMILES: C[S+](C)[O-] [dimethyl sulfoxide]
- Susceptibility of the specific KEX2 endopeptidase to inhibition or inactivation [3, 7]: much less sensitive to inactivation

SMILES: O=C(O)CI [iodoacetic acid]
- Susceptibility of the specific KEX2 endopeptidase to inhibition or inactivation [3]: more susceptible to inhibition

SMILES: Cc1cc(=O)oc2cc(NC(=O)[C@H](CCCNC(=N)N)NC(=O)[C@H](CO)NC(=O)[C@H](Cc3ccccc3)NC(=O)OC(C)(C)C)ccc12 [Boc--PheSerArg--MCA, Boc-PheSerArg-MCA] (Boc-Phe-Ser-Arg-{AMC})
- Relative Ratio ([1]; substrate 0.1 mM): 6.3
- Specific Activity [1, 4]: 3.8 pmoles AMC formed/μg protein 10
- Specific Activity [2, 5]: 0.6 pmoles AMC formed/μg protein 10
- Relative Ratio ([3]; substrate 0.1 mM): 51.7
- Rate of hydrolysis relative to Boc-GlnArgArg-MCA, times more slowly ([3]; membrane fractions of kex2 cells carrying pJ2B): about three times more slowly
- Specific Activity [3, 6]: 31.0 pmoles AMC formed/μg protein 10

SMILES: Cc1ccc(S(=O)(=O)NC(CCCCN)C(=O)CCl)cc1 (centres unmarked) [TLCK, tosyl-lysine-chloromethylketone]
- inhibition at 1000 µM [1]: 16%
- inhibition at 5000 µM [1]: 17%
- Specific Activity [1, 8]: 14.6 pmoles/μg/10 min
- Specific Activity [1, 9]: 14.5 pmoles/μg/10 min
- Inhibition [2, 10]: 55%
- Specific Activity [2, 10]: 2.3 pmoles/μg/10 min
- Inhibition [2, 11]: 65%
- Specific Activity [2, 11]: 1.8 pmoles/μg/10 min
- Susceptibility of the background activity to inhibition [2]: sensitive to inhibition
- Specific Activity [3, 12]: 100.8 pmoles/μg/10 min
- inhibition at 1000 µM [3, 12]: 7%
- Specific Activity [3, 13]: 95.5 pmoles/μg/10 min
- inhibition at 5000 µM [3, 13]: 12%
- Susceptibility of the specific KEX2 endopeptidase to inhibition or inactivation [3, 7]: completely resistant

SMILES: Cc1cc(=O)oc2cc(NC(=O)[C@H](CCCNC(=N)N)NC(=O)c3ccccc3)ccc12 [Bz--Arg--MCA, Bz-Arg-MCA]
- Relative Ratio ([1]; substrate 0.1 mM): 1.0
- Specific Activity [1, 4]: 0.1 pmoles AMC formed/μg protein 10
- Specific Activity [2, 5]: 0.1 pmoles AMC formed/μg protein 10
- Relative Ratio ([3]; substrate 0.1 mM): 6.0
- Rate of hydrolysis (in words) [3]: negligible rates
- Specific Activity [3, 6]: 0.6 pmoles AMC formed/μg protein 10
